From patent US10023570B2 (Array BioPharma, Inc., priority 2015, dated 2018) come the findings set out here.

In the test the target is human KDR protein in HEK-293 cells (Homo sapiens (Human), UniProt P35968). Briefly: KDR Cell Assay (phospho-KDR in HEK-293 cells expressing inducible KDR). The conditions noted are these: pKDR Cell HEK 10% FBS IC50, HEK-293 cells expressing inducible KDR, VEGF stimulated. The test is classed as cell-based. How it is done: The cellular potency of a compound inhibiting KDR kinase was determined in HEK-293 cells expressing an inducible human KDR protein. […] The cells were incubated for 1 hour with test compound in DMEM at a final DMSO concentration of 0.25%. […] The media was aspirated and 35 μL of a 1× lysis buffer was added. […] The lysate was stored at −80° C. until ready for assay. Phospho-KDR was measured using a phospho-KDR kit (Catalog #K151BOC) purchased from Meso Scale Diagnostics (Rockville, Md.) according to the manufacturer's instructions. All values are expressed as percent of percent of control (POC). The POC values were fitted to a 4 parameter logistic curve fit and the IC50 value is point where the curve crosses 50 POC.

The IC50 is the concentration that gives 50% inhibition. High values mean weaker potency, low ones greater potency.

Where a name gives a salt, the structure may show the parent alone.

Sequence of human KDR protein in HEK-293 cells (P35968 20-1356): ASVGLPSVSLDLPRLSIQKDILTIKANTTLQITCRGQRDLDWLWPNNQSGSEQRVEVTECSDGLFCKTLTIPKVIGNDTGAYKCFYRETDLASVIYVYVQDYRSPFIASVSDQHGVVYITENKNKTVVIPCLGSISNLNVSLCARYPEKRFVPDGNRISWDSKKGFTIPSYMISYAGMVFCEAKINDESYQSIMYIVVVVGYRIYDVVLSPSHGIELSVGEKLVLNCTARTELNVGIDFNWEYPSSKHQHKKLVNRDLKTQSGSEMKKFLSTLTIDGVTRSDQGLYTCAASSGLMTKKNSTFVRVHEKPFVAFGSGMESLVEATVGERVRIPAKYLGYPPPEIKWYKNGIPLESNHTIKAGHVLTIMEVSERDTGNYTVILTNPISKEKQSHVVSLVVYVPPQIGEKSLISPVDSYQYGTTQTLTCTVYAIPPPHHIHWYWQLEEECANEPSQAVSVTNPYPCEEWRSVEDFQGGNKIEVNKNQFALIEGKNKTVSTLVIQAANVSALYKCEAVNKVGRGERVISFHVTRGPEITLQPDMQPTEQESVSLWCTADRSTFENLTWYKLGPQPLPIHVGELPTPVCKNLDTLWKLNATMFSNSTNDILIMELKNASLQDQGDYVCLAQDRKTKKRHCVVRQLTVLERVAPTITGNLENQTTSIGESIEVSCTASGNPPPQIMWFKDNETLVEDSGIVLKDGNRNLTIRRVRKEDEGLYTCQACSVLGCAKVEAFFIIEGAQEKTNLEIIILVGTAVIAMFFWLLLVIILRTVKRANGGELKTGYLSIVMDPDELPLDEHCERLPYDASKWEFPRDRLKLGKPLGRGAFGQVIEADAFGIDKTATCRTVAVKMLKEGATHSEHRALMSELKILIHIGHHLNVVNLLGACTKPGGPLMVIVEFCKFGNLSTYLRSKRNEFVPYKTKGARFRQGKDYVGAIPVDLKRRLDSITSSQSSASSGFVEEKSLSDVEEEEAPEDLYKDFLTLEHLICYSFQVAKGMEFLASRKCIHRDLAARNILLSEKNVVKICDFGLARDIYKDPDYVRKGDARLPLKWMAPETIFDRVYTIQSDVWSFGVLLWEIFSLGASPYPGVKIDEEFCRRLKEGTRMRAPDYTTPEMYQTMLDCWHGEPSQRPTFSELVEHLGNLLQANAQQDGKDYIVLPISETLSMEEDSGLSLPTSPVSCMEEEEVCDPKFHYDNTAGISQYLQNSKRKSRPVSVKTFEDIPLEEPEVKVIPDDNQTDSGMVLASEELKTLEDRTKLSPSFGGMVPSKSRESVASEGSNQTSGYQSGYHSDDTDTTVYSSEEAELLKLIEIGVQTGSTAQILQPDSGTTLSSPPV

Compound `CO[C@@H]1CCN(C(=O)N2CCN(c3ccc(-c4cc(-c5cnn(C)c5)cn5ncc(C#N)c45)cn3)CC2)C1` [Example 104, (R)-4-(6-(4-(3-methoxypyrrolidine-1-carbonyl)piperazin-1-yl)pyridin-3-yl)-6-(1-methyl-a]pyridine-3-carbonitrile 1H-pyrazol-4-yl)pyrazolo[1,5-] registered a half-inhibitory concentration (IC50) (10% FBS) of 637 nM. This lies in the sub-micromolar range.
The same measure, in the same setting: under `Cn1cc(-c2cc(-c3ccc(N4CCC5(CC4)CN(C(=O)c4ccccc4)C5)nc3)c3c(C#N)cnn3c2)cn1` [Example 217, 4-(6-(2-benzoyl-2,7-diazaspiro[3.5]nonan-7-yl)pyridin-3-yl)-6-(1-methyl-1H-pyrazol-4-yl)pyrazolo[1,5-a]pyridine-3-carbonitrile] stands 1670 nM; under `CN(C(=O)N1CCN(c2ccc(-c3cc(-c4cnn(C)c4)cn4ncc(C#N)c34)cn2)CC1)c1ccccc1` [Example 109, 4-(5-(3-cyano-6-(1-methyl-1H-pyrazol-4-yl)pyrazolo[1,5-a]pyridin-4-yl)pyridin-2-yl)-N-methyl-N-phenylpiperazine-1-carboxamide], 360 nM.
`Cn1cc(-c2cc(-c3ccc(N4CCC(Oc5ccccc5)CC4)nc3)c3c(C#N)cnn3c2)cn1` [Example 508] returned an IC50 of 2.9 nM.
Where the note is “10% FBS”, `Cn1cc(-c2cc(-c3ccc(N4CCC5(CC4)CN(C(=O)OC(C)(C)C)C5)nc3)c3c(C#N)cnn3c2)cn1` [Example 214, tert-butyl 7-(5-(3-cyano-6-(1-methyl-1H-pyrazol-4-yl)pyrazolo[1,5-a]pyridin-4-yl)pyridin-2-yl)-2,7-diazaspiro[3.5]nonane-2-carboxylate] registered a concentration for half-maximal inhibition (IC50) of 597 nM.
Same read-out and setting: the value for `CO[C@@H](C(=O)N1CCN(c2ccc(-c3cc(-c4cnn(C)c4)cn4ncc(C#N)c34)cn2)CC1)c1ccccc1` [Example 83] was 135 nM.
As to `CCn1cc(CN2CCN(c3ccc(-c4cc(-c5cnn(C)c5)cn5ncc(C#N)c45)cn3)CC2)cn1` [Example 446, 4-(6-(4-((1-ethyl-1H-pyrazol-4-yl)methyl)piperazin-1-yl)pyridin-3-yl)-6-(1-methyl-1H-pyrazol-4-yl)pyrazolo[1,5-a]pyridine-3-carbonitrile], the half-inhibitory concentration (IC50) is 1470 nM. This counts as single-digit micromolar.
The same measure, in the same setting: the value for `CO[C@](C(=O)N1CCN(c2ccc(-c3cc(-c4cnn(C)c4)cn4ncc(C#N)c34)cn2)CC1)(c1ccccc1)C(F)(F)F` [Example 371, (S)-6-(1-methyl-1H-pyrazol-4-yl)-4-(6-(4-(3,3,3-trifluoro-2-methoxy-2-phenylpropanoyl)piperazin-1-yl)pyridin-3-yl)pyrazolo[1,5-a]pyridine-3-carbonitrile] was 1910 nM.
Take `Cn1cc(-c2cc(-c3ccc(N4CC5CCC(C4)N5)nc3)c3c(C#N)cnn3c2)cn1` [Example 174, 4-(6-(3,8-diazabicyclo[3.2.1]octan-3-yl)pyridin-3-yl)-6-(1-methyl-1H-pyrazol-4-yl)pyrazolo[1,5-a]pyridine-3-carbonitrile dihydrochloride]: inhibition (10% FBS) was half-maximal at 1220 nM (IC50).
`CC(C)N1CCN(c2ccc(-c3cc(-c4cnn(C)c4)cn4ncc(C#N)c34)cn2)CC1` [Example 410, 4-(6-(4-isopropylpiperazin-1-yl)pyridin-3-yl)-6-(1-methyl-1H-pyrazol-4-yl)pyrazolo[1,5-a]pyridine-3-carbonitrile] yielded an IC50 of 1630 nM.
Compound `Cn1cc(-c2cc(-c3ccc(N4CCN(C(=O)C[C@H](NC(=O)OC(C)(C)C)c5ccccc5)CC4)nc3)c3c(C#N)cnn3c2)cn1` [Example 17, (S)-tert-butyl (3-(4-(5-(3-cyano-6-(1-methyl-1H-pyrazol-4-yl)pyrazolo[1,5-a]pyridin-4-yl)pyridin-2-yl)piperazin-1-yl)-3-oxo-1-phenylpropyl)carbamate] had a half-maximal inhibitory concentration (IC50) (10% FBS) of 83.4 nM.
Compound `Cn1cc(-c2cc(-c3ccc(N4CCN(C(=O)N5CCOCC5)CC4)nc3)c3c(C#N)cnn3c2)cn1` [Example 119, 6-(1-methyl-1H-pyrazol-4-yl)-4-(6-(4-(morpholine-4-carbonyl)piperazin-1-yl)pyridin-3-yl)pyrazolo[1,5-a]pyridine-3-carbonitrile] registered a concentration for half-maximal inhibition (IC50) (10% FBS) of 2270 nM.
Compound `Cn1cc(-c2cc(-c3ccc(N4CCN(CC(F)(F)F)CC4)nc3)c3c(C#N)cnn3c2)cn1` [Example 419, 6-(1-methyl-1H-pyrazol-4-yl)-4-(6-(4-(2,2,2-trifluoroethyl)piperazin-1-yl)pyridin-3-yl)pyrazolo[1,5-a]pyridine-3-carbonitrile] displayed a concentration for half-maximal inhibition (IC50) of 1900 nM.
`Cn1cc(-c2cc(-c3ccc(N4CCN(C(=O)C5(C(F)(F)F)CC5)CC4)nc3)c3c(C#N)cnn3c2)cn1` [Example 346, 6-(1-methyl-1H-pyrazol-4-yl)-4-(6-(4-(1-(trifluoromethyl)cyclopropanecarbonyl)piperazin-1-yl)pyridin-3-yl)pyrazolo[1,5-a]pyridine-3-carbonitrile] returned an IC50 (10% FBS) of 1770 nM.
Still for that read-out and setting: under `Cn1cc(-c2cc(-c3ccc(N4CCN(C(=O)CCc5cccnc5)CC4)nc3)c3c(C#N)cnn3c2)cn1` [Example 43, 6-(1-methyl-1H-pyrazol-4-yl)-4-(6-(4-(3-(pyridin-3-yl)propanoyl)piperazin-1-yl)pyridin-3-yl)pyrazolo[1,5-a]pyridine-3-carbonitrile bis(2,2,2-trifluoroacetate)] stands 653 nM.
The same measure, in the same setting: the value for `Cn1cc(-c2cc(-c3ccc(N4CCN(C(=O)N5CC[C@H](F)C5)CC4)nc3)c3c(C#N)cnn3c2)cn1` [Example 102, (S)-4-(6-(4-(3-fluoropyrrolidine-1-carbonyl)piperazin-1-yl)pyridin-3-yl)-6-(1-methyl-1H-pyrazol-4-yl)pyrazolo[1,5-a]pyridine-3-carbonitrile] was 551 nM; that for `Cn1cc(-c2cc(-c3ccc(N4CCN(C(=O)C5(c6ccccc6)CCOCC5)CC4)nc3)c3c(C#N)cnn3c2)cn1` [Example 342, 6-(1-methyl-1H-pyrazol-4-yl)-4-(6-(4-(4-phenyltetrahydro-2H-pyran-4-carbonyl)piperazin-1-yl)pyridin-3-yl)pyrazolo[1,5-a]pyridine-3-carbonitrile] was 4750 nM; that for `COC[C@@H]1CCCN1C(=O)N1CCN(c2ccc(-c3cc(-c4cnn(C)c4)cn4ncc(C#N)c34)cn2)CC1` [Example 111, (S)-4-(6-(4-(2-(methoxymethyl)pyrrolidine-1-carbonyl)piperazin-1-yl)pyridin-3-yl)-6-(1-methyl-1H-pyrazol-4-yl)pyrazolo[1,5-a]pyridine-3-carbonitrile] was 1960 nM.
The compound `Cn1cc(-c2cc(-c3ccc(N4CCN(C(=O)N5CCC(F)CC5)CC4)nc3)c3c(C#N)cnn3c2)cn1` [Example 114, 4-(6-(4-(4-fluoropiperidine-1-carbonyl)piperazin-1-yl)pyridin-3-yl)-6-(1-methyl-1H-pyrazol-4-yl)pyrazolo[1,5-a]pyridine-3-carbonitrile] returned an IC50 (10% FBS) of 2250 nM.
Turning to `Cn1cc(-c2cc(-c3ccc(N4CCC(C(=O)NC5CC(F)(F)C5)CC4)nc3)c3c(C#N)cnn3c2)cn1` [Example 238, 1-(5-(3-cyano-6-(1-methyl-1H-pyrazol-4-yl)pyrazolo[1,5-a]pyridin-4-yl)pyridin-2-yl)-N-(3,3-difluorocyclobutyl) piperidine-4-carboxamide], the IC50 (10% FBS) worked out at 420 nM.
For the compound `Cn1cc(-c2cc(-c3ccc(N4CCN(Cc5cc(F)ccc5F)CC4)nc3)c3c(C#N)cnn3c2)cn1` [Example 429, 4-(6-(4-(2,5-difluorobenzyl)piperazin-1-yl)pyridin-3-yl)-6-(1-methyl-1H-pyrazol-4-yl)pyrazolo[1,5-a]pyridine-3-carbonitrile], inhibition was half-maximal at 1560 nM (IC50). This lies in the single-digit micromolar range.
Still for that read-out and setting: the value for `CN(C)C(=O)N1CC2(CCN(c3ccc(-c4cc(-c5cnn(C)c5)cn5ncc(C#N)c45)cn3)CC2)C1` [Example 501, 7-(5-(3-cyano-6-(1-methyl-1H-pyrazol-4-yl)pyrazolo[1,5-a]pyridin-4-yl)pyridin-2-yl)-N,N-dimethyl-2,7-diazaspiro[3.5]nonane-2-carboxamide] was 554 nM.
Compound `Cn1cc(-c2cc(-c3ccc(N4CCN(C(=O)C5(c6ccccc6)CCC5)CC4)nc3)c3c(C#N)cnn3c2)cn1` [Example 27, 6-(1-methyl-1H-pyrazol-4-yl)-4-(6-(4-(1-phenylcyclobutane-1-carbonyl)piperazin-1-yl)pyridin-3-yl)pyrazolo[1,5-a]pyridine-3-carbonitrile] came in with a 50% inhibitory concentration (IC50) (10% FBS) of 651 nM.
Still for that read-out and setting: the value for `Cn1cc(-c2cc(-c3ccc(N4CCN(C(=O)C5(c6ccccc6)CC5)CC4)nc3)c3c(C#N)cnn3c2)cn1` [Example 25, 6-(1-methyl-1H-pyrazol-4-yl)-4-(6-(4-(1-phenylcyclopropane-1-carbonyl)piperazin-1-yl)pyridin-3-yl)pyrazolo[1,5-a]pyridine-3-carbonitrile] was 270 nM.
Turning to `Cc1ccnc(CN2CCN(c3ccc(-c4cc(-c5cnn(C)c5)cn5ncc(C#N)c45)cn3)CC2)c1` [Example 443, 6-(1-methyl-1H-pyrazol-4-yl)-4-(6-(4-((4-methylpyridin-2-yl)methyl)piperazin-1-yl)pyridine-3-yl)pyrazolo[1,5-a]pyridine-3-carbonitrile], the IC50 was 653 nM.
`Cn1cc(-c2cc(-c3ccc(N4CCNC5(CC5)C4)nc3)c3c(C#N)cnn3c2)cn1` [Example 167, 4-(6-(4,7-diazaspiro[2.5]octan-7-yl)pyridin-3-yl)-6-(1-methyl-1H-pyrazol-4-yl)pyrazolo[1,5-a]pyridine-3-carbonitrile dihydrochloride] yielded an IC50 (10% FBS) of 780 nM.
Take `Cn1cc(-c2cc(-c3ccc(N4CCCC5(CCNCC5)C4)nc3)c3c(C#N)cnn3c2)cn1` [Example 540, 4-(6-(2,9-diazaspiro[5.5]undecan-2-yl)pyridin-3-yl)-6-(1-methyl-1H-pyrazol-4-yl)pyrazolo[1,5-a]pyridine-3-carbonitrile dihydrochloride]: the IC50 turned out to be 1220 nM.
